How the values were obtained:
[1] = system: HepG2: a human liver cancer cell line; assay: MTT analytical method, HepG2 cells; format: cell-based; settings: 72 h
From the text: (§1) MTT analytical method was used to test the prodrugs for various tumor cells.
(§2) • 1) Cell lines: NCI-H460, A549, LOVO, HT-29, MDA-MB-231, SGC7901, HepG2 or BEL-7402 cell lines. Culture: adherent culturing in D-MEM (Hyclone, Inc.) containing 10% fetal calf serum. The initial cell concentration was about 3×10^5 /mL. The cell was passaged by 1:3 dilution in every 2-3 days. On the day before the test, the cell was passaged by 1:2 dilution, the cell concentration for the test was 5-10×10^5 /mL. • 2) Dissolution and dilution of compounds: according to the weight and molecular weight of the drugs provided, 100-200 μL of DMSO was added. Then normal saline was added to make the final diluted concentration of the drugs be 5 mM (Note that the final concentration of DMSO should not be more than 10%). • 3) D-MEM or RPMI 1640 cell culture medium, Gibco, Inc. • 4) Fetal calf serum Hyclone, Inc. • 5) Cell dissociation buffer, 0.25% Trypsin+0.02% EDTA. • 6) MTT solution, MTT Powder (Sigma) were dissolved in PBS buffer solution to make a solution of 5 mg/mL. The solution was filtered by a 0.22 μm micropore membrane and stored at −20° C. • 7) PBS buffer solution. • 8) 10% acidified SDS, 0.01N HCl. • 9) Centrifuge tubes, haustorial tubes etc. (BD, Inc.); 96-well plates (Costatr, Inc.) Procedures: • 1) Cell inoculation: Cells grown for 24 hours after passage, which cells were in good growth state, were used. The cells were harvested by the routine method. The cell concentration was adjust with a fresh culture solution to 2×10^5/mL (for adherent cells)-3×10^5/mL (for suspension cells). The adherent cells were inoculated at 100 μL/well and then cultivated in an incubator with 5% CO2 at 37° C. for 24 h. Thereafter the used culture solution was removed and 95 μL/well of fresh culture solution was added. The suspension cells were inoculated at 95 μL/well directly. • 2) Drugs treatment: 9 concentration grades were designed for every drug, and every concentration had 3 wells. The control group had 5 wells. The control group was tested simultaneously in each test. The final concentrations of a drug added were […], and 5 μL normal saline was added to the control group. • 3) Cell culture and detection: the cells were cultured in an incubator with 5% CO2 at 37° C. for 72 h after the drug was added, then 10 μL MTT was added to each well and the culture was continued for 4 h. 100 μL of 10% SDS (containing 0.01N HCl) was added to each well. After 24 h, the absorbance (A) of each well was determined by Bio-rad 680 ELISA with the detection wavelength of 570 nm and the reference wavelength of 630 nm. Calculation:
(§3) First, the absorbance (A) of each well was averaged (removing any data with big difference). […] A0 was the mean absorbance of the control wells. The effect curve of the drug concentration was drawn using EXCEL software and the drug concentration for 50% cell survival was calculated according to an appropriate computing methods.

[2] = system: HepG2 tumor transplanted in nude mice; assay: HepG2 tumor transplanted in nude mice, intravenous administration; format: in vivo, BALB/C nude mice; settings: for weight loss rate: HepG2 nude mice; for effect on growth of HepG2 tumor (growth curve and tumor weight), in words: i.v., SL-01 10, 20, 40 mg/kg, Gem group
Experimental: 1. […] The drugs were packaged and stored at −20° C.
The treatment starting day was the first day (d0). […] The tumor tissues were removed and weighed. The inhibition rate of tumor growth was calculated.
4.2 The low, middle and high dosage of SL-01 in the treatment for HepG2 liver cancer cell line tumor growth transplanted in nude mice are 10, 20 and 40 mg/kg, respectively.

[3] = Stability in human blood plasma (HPLC); format: in vitro ADME; settings: for stability in blood plasma (in words): 0-12 h; for Degrade % / chromatography peak area of drug: plasma
Experimental: Isopropanol (1 mL) was then added into the blood sample and vortexed for 30 s and kept still for 5 min. 2.5 ml of EtOAc was added and votexed and centrifuged at 4000 rpm for 15 minutes. The supernatant was taken and dried by blowing in nitrogen. The dried sample was redissolved in 200 μL HPLC mobile phase solution. 20 μL sample was loaded to the HPLC.
The samples were processed using the standard method.

[4] = system: H460 cells, a human lung cancer cell line, inoculated in nude mice; assay: H460 tumor in nude mice, oral administration of SL-01; format: in vivo, Balb/c female nude mice; settings: for Tumor Weight, Average Value: end of the experiment; for drop of animal weight: figure fits day 22 versus negative control (Table 13)
Experimental: 1. […] Suspension formulation was prepared using 2.5% starch for intragastric administration. […] In the test, it was dissolved in normal saline and filtered with microfiltration membrane and administrated by tail vein injection. Positive control drug: Ftorafur (FT-207) produced by Qilu Pharmaceutical Co. Ltd., oral formulation.
2. Experimental animals: 50 Balb/c female nude mice at 4-5 weeks old, purchased from Peking University Health Science Center.
1. Culture of tumor cells: H460 cells were cultured in an incubator with 5% CO2 at 37° C. using RPMI-1640 nutrient solution containing 10% fetal calf serum. The cells were passaged through routine method.
2.2 Method of inoculating tumor cells in nude mice: cells were collected when they grew to about […] in culture flasks. Cells were washed twice with PBS before they were digested, then 1.5 mL of digestion solution juices was added into every bottle. They were observed under a microscope and the digestion was terminated after the cells were shed. Cell suspension was collected into 50 mL of centrifugal tube and centrifuged and washed twice with PBS. It was counted and suspended with 10 mL of normal saline to get the tumor cell suspension of inoculated nude mice. The tumor cells (1×10^7/0.2 mL) were inoculated in the left front armpits of mice. The tumor growth was observed after the inoculation.
4. Evaluation protocols for drug treating effect: these mice were weighed before drug administration and every week thereafter. The long tumor pathline (a) and the short tumor pathline (b) were measured at the same time. The formula for calculating the tumor volume is V=(a×b^2)/2. Mice were euthanized after drug administration for 3 weeks. The tumor was taken out and weighed. […] W was the tumor weight of the treatment group.

[5] = system: LOVO: a human colon cancer cell line; assay: MTT analytical method, LOVO cells; format: cell-based; settings: 72 h
From the text: as §1, §2, §3

[6] = SL-01 middle dosage 60 mg/kg gavage
[7] = SL-01 middle dosage group 60 mg/kg gavage
[8] = SL-01 small dosage 30 mg/kg gavage
[9] = SL-01 small dosage group 30 mg/kg gavage

## CCCCCCCCCCCCOC(=O)c1nccnc1C(=O)Nc1ccn([C@@H]2O[C@H](CO)[C@@H](O)C2(F)F)c(=O)n1 [Compound 4, Dodecyl-3-((1-((2R,4R,5R)-3,3-difluoro-4-hydroxy-5-(hydroxymethyl)-tetrahydrofuran-2-yl)-2-oxo-1,2-dihydropyrimidin-4-yl)carbamoyl)pyrazine-2-carboxylate]
[1]
  IC50: 6 µM
[2]; SL-01 high dosage 40 mg/kg i.v.
  weight loss rate: 3.5%
[2]; SL-01 low dosage 10 mg/kg i.v.
  weight loss rate: 11.6%
[2]; SL-01 middle dosage 20 mg/kg i.v.
  weight loss rate: 14%
[2]
  effect on growth of HepG2 tumor (growth curve and tumor weight), in words: neither SL-01 nor gemcitabine has shown an obvious inhibitory effect
[3]
  stability in blood plasma (in words): degradable
[3]; 0 min
  Degrade %: 0%
  chromatography peak area of drug: 336275.344
[3]; 1 h
  Degrade %: 2.77%
  chromatography peak area of drug: 326948.219
[3]; 2 h
  Degrade %: 22.11%
  chromatography peak area of drug: 261917.094
[3]; 4 h
  Degrade %: 46.99%
  chromatography peak area of drug: 178242.781
[3]; 6 h
  Degrade %: 82.31%
  chromatography peak area of drug: 59465.750
[3]; 8 h
  Degrade %: 89.64%
  chromatography peak area of drug: 43894.633
[3]; 12 h
  Degrade %: 96.17%
  chromatography peak area of drug: 12894.514
[4]; SL-01 middle dosage 60 mg/kg gastric gavage 1 per 3 days, day 7
  Mean Volume of Tumor: 739.6 mm^3
[4]; SL-01 middle dosage 60 mg/kg gastric gavage 1 per 3 days, day 14
  Mean Volume of Tumor: 823.4 mm^3
[4]; SL-01 middle dosage 60 mg/kg gastric gavage 1 per 3 days, day 18
  Mean Volume of Tumor: 870.2 mm^3
[4]; SL-01 middle dosage 60 mg/kg gastric gavage 1 per 3 days, day 22
  Mean Volume of Tumor: 905.3 mm^3
[4]; [6]
  Inhibition ratio (tumor weight): 53.7%
  Tumor Weight, Average Value: 0.95 g
[4]; SL-01 middle dosage 60 mg/kg gavage, day 0
  Mean Weight of Nude Mice: 19.5 g
[4]; SL-01 middle dosage 60 mg/kg gavage, day 7
  Mean Weight of Nude Mice: 19.1 g
[4]; SL-01 middle dosage 60 mg/kg gavage, day 14
  Mean Weight of Nude Mice: 19.6 g
[4]; SL-01 middle dosage 60 mg/kg gavage, day 22
  Mean Weight of Nude Mice: 19.6 g
[4]; [7]
  efficacy by t-test, in words: significant efficacy
  drop of animal weight: 14.8%
[4]; SL-01 small (low) dosage 30 mg/kg gastric gavage 1 per 3 days, day 7
  Mean Volume of Tumor: 761.3 mm^3
[4]; SL-01 small (low) dosage 30 mg/kg gastric gavage 1 per 3 days, day 14
  Mean Volume of Tumor: 840.9 mm^3
[4]; SL-01 small (low) dosage 30 mg/kg gastric gavage 1 per 3 days, day 18
  Mean Volume of Tumor: 950.5 mm^3
[4]; SL-01 small (low) dosage 30 mg/kg gastric gavage 1 per 3 days, day 22
  Mean Volume of Tumor: 1092.0 mm^3
[4]; [8]
  Inhibition ratio (tumor weight): 48.3%
  Tumor Weight, Average Value: 1.06 g
[4]; SL-01 small dosage 30 mg/kg gavage, day 0
  Mean Weight of Nude Mice: 19.6 g
[4]; SL-01 small dosage 30 mg/kg gavage, day 7
  Mean Weight of Nude Mice: 19.3 g
[4]; SL-01 small dosage 30 mg/kg gavage, day 14
  Mean Weight of Nude Mice: 19.9 g
[4]; SL-01 small dosage 30 mg/kg gavage, day 22
  Mean Weight of Nude Mice: 19.7 g
[4]; [9]
  efficacy by t-test, in words: significant efficacy
  drop of animal weight: 14.3%
[5]
  IC50: 16 µM

## Nc1ccn([C@@H]2O[C@H](CO)[C@@H](O)C2(F)F)c(=O)n1 [Gemcitabine, gemcitabine, reference compound]
[1]
  IC50: < 1 µM
[2]; gemcitabine positive control
  weight loss rate: 9%
[2]
  effect on growth of HepG2 tumor (growth curve and tumor weight), in words: neither SL-01 nor gemcitabine has shown an obvious inhibitory effect
[3]
  stability in blood plasma (in words): stable
[3]; 0 min
  chromatography peak area of drug: 562562.938
[3]; 1 h
  chromatography peak area of drug: 592859.625
[3]; 2 h
  chromatography peak area of drug: 466418.094
[3]; 4 h
  chromatography peak area of drug: 483743.594
[3]; 6 h
  chromatography peak area of drug: 552648.313
[3]; 8 h
  chromatography peak area of drug: 540059.125
[3]; 12 h
  chromatography peak area of drug: 544300.688
[4]; Gemcitabine 30 mg/kg i.v. 1 per 3 days, day 7
  Mean Volume of Tumor: 700.7 mm^3
[4]; Gemcitabine 30 mg/kg i.v. 1 per 3 days, day 14
  Mean Volume of Tumor: 759.7 mm^3
[4]; Gemcitabine 30 mg/kg i.v. 1 per 3 days, day 18
  Mean Volume of Tumor: 804.5 mm^3
[4]; Gemcitabine 30 mg/kg i.v. 1 per 3 days, day 22
  Mean Volume of Tumor: 868.0 mm^3
[4]; Gemcitabine 30 mg/kg i.v., day 0
  Mean Weight of Nude Mice: 19.1 g
[4]; Gemcitabine 30 mg/kg i.v., day 7
  Mean Weight of Nude Mice: 19.0 g
[4]; Gemcitabine 30 mg/kg i.v., day 14
  Mean Weight of Nude Mice: 18.6 g
[4]; Gemcitabine 30 mg/kg i.v., day 22
  Mean Weight of Nude Mice: 18.2 g
[4]; Gemcitabine 30 mg/kg i.v.
  Tumor Weight, Average Value: 0.89 g
[4]; gemcitabine group 30 mg/kg i.v.
  efficacy by t-test, in words: significant efficacy
[5]
  IC50: < 1 µM

— patent US8653048B2 (Sanlugen Pharmatech Ltd., priority 2009, dated 2014)
